Measured values as given in US8796256B2 (Janssen Pharmaceutica NV, priority 2010, dated 2014).
Like-named read-outs stand apart in the source and are kept apart here.

Experiments:
[1] = target: T1, ERR1 (also known as ERR-α or ERR-1) (Homo sapiens, UniProt P11474); test: TR-FRET assay (disruption of co-activator peptide binding to ERR1 LBD); format: biochemical; conditions: 6 nM 6His-ERR1LBD, 6 nM GST-SRC-2 peptide; average of 3 independent experiments
T1 sequence (P11474 193-421 limits assumed): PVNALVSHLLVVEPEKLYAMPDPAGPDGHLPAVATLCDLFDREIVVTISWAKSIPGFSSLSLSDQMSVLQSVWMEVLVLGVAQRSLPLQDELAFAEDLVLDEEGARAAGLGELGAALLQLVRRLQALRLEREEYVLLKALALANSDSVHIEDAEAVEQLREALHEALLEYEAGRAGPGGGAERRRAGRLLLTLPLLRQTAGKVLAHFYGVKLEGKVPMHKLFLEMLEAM
Summary of the method: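 His-tagged ERR1 ligand-binding domain and GST-labelled SRC-2 peptide, each 6 nM, equilibrated at 25° C for 4-18 h in Tris pH 8/Hepes/KCl/DTT/delipidated BSA buffer. Compound-induced loss of co-activator binding read as Eu cryptate→XL665 energy transfer; values from hyperbolic curve fits averaged over 3 independent runs.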

Zucker fa/fa male rats = test: Zucker fa/fa Rat Model Assay; format: in vivo; conditions: po, 120 h, 10 mg/kg orally once a day for 4 days
Excerpt: Zucker fa/fa is a monogenic model of frank diabetes due to a mutation on the fa gene truncating the leptin receptor and preventing its interaction with its peptide hormone. This mutation results in a hyperphagic phenotype and the rodent develops obesity, hyperlipidemia, fasting hyperglycemia and insulin resistance. Zucker fa/fa male rats were received at four weeks of age and allowed to acclimate for one week. At five weeks of age the animals were single housed in cages in a temperature-controlled room with 12-hour light/dark cycle. The rats were allowed ad libitum access to water and food and throughout the study were maintained on a Purina 5008 diet. Animals were sorted based primarily on fed insulin levels and circulating triglycerides. Animals were dosed orally once a day (10 mg/kg) in the morning for 4 days. The vehicle used was either 20% HPβCD (Hydroxypropyl Beta Cyclodextrin) or 15% Vitamin E/30% PEG-400 (Polyethylene Glycol 400). Fed insulin and triglycerides were measured using blood collected from the tail vein at day 5. Serum plasma samples were prepared by centrifugation in EDTA (Ethylenediaminetetraacetic acid) containing tubes, transferred into 96 well plates and stored at −80° C.

[2] = blood from tail vein at day 5, read-out: % Change Fed Insulin Levels
[3] = blood from tail vein at day 5, read-out: % Change Fed Triglyceride Levels

Row | EC50 [1] | SMILES | change in vivo at 10 mg/kg (Zucker fa/fa male rats; [2]) | change in vivo at 10 mg/kg (Zucker fa/fa male rats; [3])
1 | 8 nM | COc1ccc(Cn2ncc3cc(/C=C4\SC(=O)N(CCN5CCOCC5)C4=O)ccc32)c(C(F)(F)F)c1 [Compound 8, (5Z)-5-[(1-{[4-(Methyloxy)-2-(trifluoromethyl)phenyl]methyl}-1H-indazol-5-yl)methylidene]-3-(2-morpholin-4-ylethyl)-1,3-thiazolidine-2,4-dione] | -21% | -19%
2 | 18 nM | CS(=O)(=O)NC(=O)CN1C(=O)S/C(=C\c2ccc3c(cnn3Cc3ccc(Cl)cc3C(F)(F)F)c2)C1=O [Compound 126, 2-[(5Z)-5-({1-[4-Chloro-2-(trifluoromethyl)benzyl]-1H-indazol-5-yl}methylidene)-2,4-dioxo-1,3-thiazolidin-3-yl]-N-(methylsulfonyl)acetamide] | -14% | 13%
3 | 16 nM | O=C1S/C(=C\c2ccc3c(cnn3Cc3ccc(Cl)cc3C(F)(F)F)c2)C(=O)N1O [Compound 288, (5Z)-5-({1-[4-Chloro-2-(trifluoromethyl)benzyl]-1H-indazol-5-yl}methylidene)-3-hydroxy-1,3-thiazolidine-2,4-dione] | -35% | -29%
4 | 22 nM | CN1CC[C@H](N2C(=O)S/C(=C\c3ccc4c(cnn4Cc4ccc(Cl)cc4C(F)(F)F)c3)C2=O)[C@@H](F)C1 [Compound 384, (5Z)-5-({1-[4-Chloro-2-(trifluoromethyl)benzyl]-1H-indazol-5-yl}methylidene)-3-[(3S,4S)-3-fluoro-1-methylpiperidin-4-yl]-1,3-thiazolidine-2,4-dione] | -52% | -51%
5 | 9 nM | COc1ccc(Cn2ncc3cc(/C=C4\SC(=O)N(CC(=O)O)C4=O)ccc32)c(C(F)(F)F)c1 [Compound 19, [(5Z)-5-({1-[4-Methoxy-2-(trifluoromethyl)benzyl]-1H-indazol-5-yl}methylidene)-2,4-dioxo-1,3-thiazolidin-3-yl]acetic acid] | -9% | 21%
6 | 22 nM | O=C(O)CN1C(=O)S/C(=C\c2ccc3c(c2)c(Cl)nn3Cc2ccc(Cl)cc2C(F)(F)F)C1=O [Compound 287, [(5Z)-5-({1-[4-Chloro-2-(trifluoromethyl)benzyl]-3-chloro-1H-indazol-5-yl}methylidene)-2,4-dioxo-1,3-thiazolidin-3-yl]acetic acid] | -53% | -36%
7 | 26 nM | O=C(O)CN1C(=O)S/C(=C\c2ccc3c(cnn3Cc3ccc(C(F)(F)F)cc3C(F)(F)F)c2)C1=O [Compound 59, [(5Z)-5-({1-[2,4-Bis(trifluoromethyl)benzyl]-1H-indazol-5-yl}methylidene)-2,4-dioxo-1,3-thiazolidin-3-yl]acetic acid] | -23% | -25%
8 | 8 nM | CC(=O)NS(=O)(=O)CN1C(=O)S/C(=C\c2ccc3c(cnn3Cc3ccc(Cl)cc3C(F)(F)F)c2)C1=O [Compound 166, N-({[(5Z)-5-({1-[4-Chloro-2-(trifluoromethyl)benzyl]-1H-indazol-5-yl}methylidene)-2,4-dioxo-1,3-thiazolidin-3-yl]methyl}sulfonyl)acetamide] | -58% | -37%
9 | 23 nM | CN1CC[C@@H](N2C(=O)S/C(=C\c3ccc4c(cnn4Cc4ccc(Cl)cc4C(F)(F)F)c3)C2=O)[C@H](F)C1 [Compound 383, (5Z)-5-({1-[4-Chloro-2-(trifluoromethyl)benzyl]-1H-indazol-5-yl}methylidene)-3-[(3R,4R)-3-fluoro-1-methylpiperidin-4-yl]-1,3-thiazolidine-2,4-dione] | -67% | -68%
10 | 23 nM | N[C@@H](CO)CN1C(=O)S/C(=C\c2ccc3c(cnn3Cc3ccc(Cl)cc3C(F)(F)F)c2)C1=O [Compound 167, (5Z)-3-[(2R)-2-Amino-3-hydroxypropyl]-5-({1-[4-chloro-2-(trifluoromethyl)benzyl]-1H-indazol-5-yl}methylidene)-1,3-thiazolidine-2,4-dione] | -33% | -45%
11 | 41 nM | O=C(O)CN1C(=O)S/C(=C\c2ccc3c(c2)nnn3Cc2ccc(Cl)cc2C(F)(F)F)C1=O [Compound 260, [(5Z)-5-({1-[4-Chloro-2-(trifluoromethyl)benzyl]-1H-benzotriazol-5-yl}methylidene)-2,4-dioxo-1,3-thiazolidin-3-yl]acetic acid] | -50% | -23%
12 | 36 nM | COCCN1CCC(N2C(=O)S/C(=C\c3ccc4c(cnn4Cc4ccc(Cl)cc4C(F)(F)F)c3)C2=O)CC1 [Compound 147, (5Z)-5-({1-[4-Chloro-2-(trifluoromethyl)benzyl]-1H-indazol-5-yl}methylidene)-3-[1-(2-methoxyethyl)piperidin-4-yl]-1,3-thiazolidine-2,4-dione] |  | 
13 | 136 nM | O=C1S/C(=C\c2ccc3c(cnn3Cc3ccc(C(F)(F)F)cc3C(F)(F)F)c2)C(=O)N1C[C@H]1CN2CCC[C@H]2CO1 [Compound 208, (5Z)-5-({1-[2,4-Bis(trifluoromethyl)benzyl]-1H-indazol-5-yl}methylidene)-3-[(3R,8aS)-hexahydro-1H-pyrrolo[2,1-c][1,4]oxazin-3-ylmethyl]-1,3-thiazolidine-2,4-dione] |  | 
14 | 22 nM | CCOC(=O)CN1C(=O)S/C(=C\c2ccc3c(c2)nnn3Cc2ccc(Cl)cc2C(F)(F)F)C1=O [Compound 259, Ethyl [(5Z)-5-({1-[4-chloro-2-(trifluoromethyl)benzyl]-1H-benzotriazol-5-yl}methylidene)-2,4-dioxo-1,3-thiazolidin-3-yl]acetate] |  | 
15 | 48 nM | Cc1nn(Cc2ccc(Cl)cc2C(F)(F)F)c2ccc(/C=C3\SC(=O)N([C@@H]4CCNC[C@H]4F)C3=O)cc12 (relative stereo) [Compound 333, (5Z)-5-({1-[4-Chloro-2-(trifluoromethyl)benzyl]-3-methyl-1H-indazol-5-yl}methylidene)-3-[trans-3-fluoropiperidin-4-yl]-1,3-thiazolidine-2,4-dione] |  | 
16 | 183 nM | CCOC(=O)[C@@H]1CCC[C@H]1N1C(=O)S/C(=C\c2ccc3c(cnn3Cc3ccc(Cl)cc3C(F)(F)F)c2)C1=O [Compound 141, Ethyl (1R,2R)-2-[(5Z)-5-({1-[4-chloro-2-(trifluoromethyl)benzyl]-1H-indazol-5-yl}methylidene)-2,4-dioxo-1,3-thiazolidin-3-yl]cyclopentanecarboxylate] |  | 
17 | 16 nM | COc1ccc(Cn2nc(OC)c3cc(/C=C4\SC(=O)N(CCN5CCOCC5)C4=O)ccc32)c(C(F)(F)F)c1 [Compound 25, (5Z)-5-({3-Methoxy-1-[4-methoxy-2-(trifluoromethyl)benzyl]-1H-indazol-5-yl}methylidene)-3-(2-morpholin-4-ylethyl)-1,3-thiazolidine-2,4-dione] |  | 
18 | 25 nM | CCN1CCC(N2C(=O)S/C(=C\c3ccc4c(cnn4Cc4ccc(Cl)cc4C(F)(F)F)c3)C2=O)CC1 [Compound 118, (5Z)-5-({1-[4-Chloro-2-(trifluoromethyl)benzyl]-1H-indazol-5-yl}methylidene)-3-(1-ethylpiperidin-4-yl)-1,3-thiazolidine-2,4-dione] |  | 
19 | 192 nM | O=C1S/C(=C\c2ccc3c(cnn3Cc3ccc(C(F)(F)F)cc3C(F)(F)F)c2)C(=O)N1C[C@@H]1CCCN2CCCC[C@H]12 [Compound 207, (5Z)-5-({1-[2,4-Bis(trifluoromethyl)benzyl]-1H-indazol-5-yl}methylidene)-3-[(1S,9aR)-octahydro-2H-quinolizin-1-ylmethyl]-1,3-thiazolidine-2,4-dione] |  | 
20 | 300 nM | O=C1S/C(=C\c2ccc3c(cnn3[C@H]3CCc4cc(Cl)ccc43)c2)C(=O)N1CCN1CCCC1 [Compound 172, (5Z)-5-({1-[(1S)-5-Chloro-2,3-dihydro-1H-inden-1-yl]-1H-indazol-5-yl}methylidene)-3-(2-pyrrolidin-1-ylethyl)-1,3-thiazolidine-2,4-dione] |  | 

Row | SMILES | EC50 [1] | change in vivo at 10 mg/kg (Zucker fa/fa male rats; [2]) | change in vivo at 10 mg/kg (Zucker fa/fa male rats; [3])
21 | CN1[C@@H]2CC[C@H]1C[C@H](N1C(=O)S/C(=C\c3ccc4c(cnn4Cc4ccc(C(F)(F)F)cc4C(F)(F)F)c3)C1=O)C2 [Compound 62, (5Z)-5-({1-[2,4-Bis(trifluoromethyl)benzyl]-1H-indazol-5-yl}methylidene)-3-[(3-exo)-8-methyl-8-azabicyclo[3.2.1]oct-3-yl]-1,3-thiazolidine-2,4-dione] | 19 nM |  | 
